According to patent US5086072A, “Treatment of mood disorders with functional antagonists of the glycine/NMDA receptor complex” (The United States of America as represented by the …, priority 1990, dated 1992):
Where two headings read alike, the source gives them in different places.

Tests used:
[1] = forced swim test, duration of immobility during last 4 minutes of 6 minute swim; format: in vivo, mice (male NIH/HSD); conditions: for IMMOBILITY %: change versus control; for minimal effective dose: Mus musculus, read-out: minimum effective dose, swim-induced immobility
Method: (§1) Certain exemplary compounds encompassed hereby were evaluated pharmacologically in mice using the forced swim (8) and/or tail suspension (9) tests. These tests were initially designed to detect potential antidepressant agents (13, 14) based on the abilities of clinically effective antidepressants to reduce the immobility that animals typically display after active and unsuccessful escape attempts when subjected to these inescapable stressors. Moreover, the predictive validity (15) and pharmacological specificity (13, 14) of these tests has led to the proposal that they represent animal models of depression. (16)
The duration of immobility was measured during the […]
Values represent means ± standard error of the mean. The number of animals examined in the forced swim test was: VEH, 40; ACPC 25 mg/kg, 11 and 50-600 mg/kg, 10. In the open field, the number of animals tested was: VEH 23; 50 and 600 mg/kg, 5; and 100-400 mg/kg, 10. Male NIH/HSD mice (25-30 g) were injected i.p. with ACPC dissolved in saline. Controls received an equivalent volume of saline. […] (8) The ambulatory time in an open field was measured for five minutes, fifteen minutes after injection of ACPC as described in Table 1.
(§2) Glycine (800 mg/kg) or an equivalent volume of saline was administered intraperitoneally to NIH/HSD mice 45 minutes prior to ACPC (400 mg/kg). Fifteen minutes after ACPC administration, animals were evaluated in the forced swim test or in an open field as described in Table 1. This dose of glycine was selected based on a previous report (40), showing that parenteral administration of large doses is required to elevate cerebral levels of glycine. […] Amino acid levels were determined using HPLC/EC with an isocratic separation method and pre-column amino acid derivatization with o-pthalaldehyde and β-mercaptoethano (41).

[2] = format: in vivo, mice (male NIH/HSD); conditions: for ACTIVITY (time spent ambulating in an open field): mean ± SEM
Method: Values represent means ± standard error of the mean. The number of animals examined in the forced swim test was: VEH, 40; ACPC 25 mg/kg, 11 and 50-600 mg/kg, 10. In the open field, the number of animals tested was: VEH 23; 50 and 600 mg/kg, 5; and 100-400 mg/kg, 10. Male NIH/HSD mice (25-30 g) were injected i.p. with ACPC dissolved in saline. Controls received an equivalent volume of saline. Fifteen minutes later, mice were placed in a cylinder (diameter: 10 cm; height: 25 cm) filled with 6 cm of water (22°-25° C.) and the duration of immobility during the last four minutes of forced swim was measured as described. (8) The ambulatory time in an open field was measured for five minutes, fifteen minutes after injection of ACPC as described in Table 1.
as §2

[3] = forced swim and/or tail suspension tests (overall conclusion); format: in vivo, mice
Method: as §1

NMDA receptor complex = conditions: cited from earlier work
[4] = behavioral effects and lethality observed in connection with forced swim; conditions: for behavioral effects prior to forced swim: I2CA 25-200, HA-966 2.5-10, ACBC 50-100 mg/kg; for lethality combined with forced swim: I2CA 25-200, HA-966 2.5-10 mg/kg
Method: (§3) Inset: Effects of ACPC on tail suspension-induced immobility. Values are mean standard error of immobility (sec.) during a 6 minute test. The number of animals used in this test was: VEH, 16; ACPC, 200 mg/kg, 6; 300 mg/kg, 9 and 400 mg/kg, 7. Male C57Bl/6J mice [20-25 g](Jackson Laboratories, Bar Harbor, ME) were injected with ACPC. Fifteen minutes later, mice were suspended by the tail and the duration of immobility measured as described. […] 7-chlorokynurenic acid (25-150 mg/kg), indole2-carboxylic acid (I2CA) (25-200 mg/kg), 3-amino-1-hydroxypyrrolidone (HA-966) (2.5-10 mg/kg), cycloleucine (100-400 mg/kg) and 1-aminocyclobutanecarboxylic acid (ACBC) (50-100 mg/kg) were tested under identical conditions to those employed for the other agents (Table 1 and FIG. 1).

[5] = tail suspension test, duration of immobility; format: in vivo, mice (male C57Bl/6J); conditions: 200-400 mg/kg, 15 min before test; F(2,31)=29, p<0.0001
Method: as §3

[6] = ambulatory time in the open field (tail suspension study); format: in vivo, C57Bl/6J mice; conditions: 400 mg/kg
[7] = biological target: strychnine-insensitive glycine receptors; conditions: cited from earlier work
[8] = biological target: strychnine sensitive glycine receptors; conditions: cited from earlier work
[9] = tested on: NMDA-gated cation channel; conditions: compared with glycine; cited from earlier work
[10] = cited from earlier work
[11] = cited from earlier work; remark: listed apart in the source
[12] = format: in vivo, mice (male NIH/HSD); conditions: for ACTIVITY (time spent ambulating in an open field): 30 min before test, mean ± SEM
[13] = 60 min after 800 mg/kg i.p.; data not shown
Method: as §2

[14] = 0.1 mg/kg i.p., 15 min before test
[15] = 0.5 mg/kg i.p., 15 min before test
[16] = 1 mg/kg i.p., 15 min before test
[17] = 7-chlorokynurenic acid 25-150, I2CA 25-200, HA-966 2.5-10, cycloleucine 100-400, ACBC 50-100 mg/kg

Structure (SMILES): C[C@]12N[C@H](Cc3ccccc31)c1ccccc12 (racemic) [MK-801, (+)-5-methyl-10,11-dihydro-5H-dibenzo[a,d]cycloheptene-5, 10-imine]
- IMMOBILITY % [1, 14]: -43%
- IMMOBILITY ([1]; 0.1 mg/kg i.p., 15 min before test, mean ± SEM): 80 ± 10 s
- maximum reduction of duration of immobility ([1]; 0.5 mg/kg): 92%
- IMMOBILITY % [1, 15]: -92%
- IMMOBILITY ([1]; 0.5 mg/kg i.p., 15 min before test, mean ± SEM): 11 ± 4 s
- IMMOBILITY % [1, 16]: -54%
- IMMOBILITY ([1]; 1 mg/kg i.p., 15 min before test, mean ± SEM): 64 ± 23 s
- reduction of duration of immobility ([1]; 0.1 and 1 mg/kg): 43-54%
- effect on duration of immobility in the forced swim test ([1]; biphasic, doses of Table 1): reduced significantly the duration of immobility
- ACTIVITY (time spent ambulating in an open field) [2, 14]: 144 ± 4 s
- increase in ambulatory time in an open field ([2]; 0.5 mg/kg): 34%
- ACTIVITY % ([2]; 0.5 mg/kg i.p., 15 min before test, change versus control): +34%
- ACTIVITY (time spent ambulating in an open field) [2, 15]: 201 ± 3 s
- ACTIVITY (time spent ambulating in an open field) [2, 16]: 170 ± 14 s
- effect on ambulatory time ([2]; 0.1 and 1 mg/kg): did not alter ambulatory time
- activity in the antidepressant models [3]: mimic clinically effective antidepressants in these models
- activity at the NMDA receptor complex (NMDA receptor complex): non-competitive NMDA antagonist

Structure (SMILES): O=C(O)c1cc(O)c2ccc(Cl)cc2n1 [7-chlorokynurenic acid]
- effect on immobility in the forced swim test [1, 17]: did not reduce immobility in the forced swim test

Structure (SMILES): NC1(C(=O)O)CCC1 [ACBC, 1-aminocyclobutanecarboxylic acid]
- effect on immobility in the forced swim test [1, 17]: did not reduce immobility in the forced swim test
- behavioral effects prior to forced swim [4]: marked behavioral effects, including ataxia

Structure (SMILES): NC1(C(=O)O)CC1 [ACPC, 1-aminocyclopropanecarboxylic acid]
- minimal effective dose [1]: 100 mg/kg
- effect of glycine on the action of ACPC in the forced swim test ([1]; mouse, in vivo): completely abolished
- effect on immobility in the forced swim test ([1]; mouse, in vivo): reduced immobility in the forced swim test in a dosedependent fashion
- maximum reduction of immobility in the forced swim test ([1]; mouse, in vivo): 65%
- further effect on immobility at higher doses ([1]; mouse, in vivo, 200 mg/kg): no further reductions in immobility
- increase in ambulatory time ([2]; 600 mg/kg, F(5,60)=10, p<0.0001): 29%
- effect of glycine on the locomotor effects of ACPC in the open field ([2]; glycine 800 mg/kg i.p. 45 min prior to ACPC 400 mg/kg): partial antagonism
- effect on immobility in the tail suspension test [5]: reduction in immobility
- increase in ambulatory time in the open field [6]: 18%
- activity in the antidepressant models [3]: mimic clinically effective antidepressants in these models
- Ki [7]: ~0.032 µM
- activity at the strychnine-insensitive glycine binding site [7]: potent and selective partial agonist
- IC50 [8]: > 1000 µM
- efficacy in stimulating [3H]MK-801 binding [9]: significantly less efficacious than glycine
- anticonflict actions in animal models [10]: possesses anticonflict actions in animal models
- muscle relaxation or ataxia [11]: do not produce the muscle relaxation or ataxia

Structure (SMILES): COC(=O)C1(N)CC1 [ACPCM, methyl 1-aminocyclopropanecarboxylate]
- minimal effective dose ([1]; Table 2): 50 mg/kg
- IMMOBILITY ([1]; Table 2, 25 mg/kg): 126 ± 8 s
- IMMOBILITY % ([1]; Table 2, 25 mg/kg): -8%
- IMMOBILITY ([1]; Table 2, 50 mg/kg): 89 ± 17 s
- IMMOBILITY % ([1]; Table 2, 50 mg/kg): -35%
- IMMOBILITY ([1]; Table 2, 100 mg/kg): 40 ± 18 s
- IMMOBILITY % ([1]; Table 2, 100 mg/kg): -71%
- IMMOBILITY ([1]; Table 2, 150 mg/kg): 69 ± 10 s
- IMMOBILITY % ([1]; Table 2, 150 mg/kg): -50%

Structure (SMILES): NC(CCCCCP(=O)(O)O)C(=O)O (stereo not drawn) [AP-7, 2-amino-7-phosphonoheptanoic acid]
- IMMOBILITY ([1]; 40 mg/kg i.p., 30 min before test, mean ± SEM): 141 ± 21 s
- IMMOBILITY ([1]; 80 mg/kg i.p., 30 min before test, mean ± SEM): 153 ± 9 s
- IMMOBILITY % ([1]; 100 mg/kg i.p., 30 min before test): -35%
- IMMOBILITY ([1]; 100 mg/kg i.p., 30 min before test, mean ± SEM): 93 ± 8 s
- IMMOBILITY % ([1]; 200 mg/kg i.p., 30 min before test): -62%
- IMMOBILITY ([1]; 200 mg/kg i.p., 30 min before test, mean ± SEM): 55 ± 13 s
- effect on duration of immobility in the forced swim test ([1]; F(4,71) = 17, p<0.0001): significant, dose dependent reduction in the duration of immobility
- effect on ambulatory time in an open field ([2]; doses of Table 1): without affecting ambulatory time
- activity in the antidepressant models [3]: mimic clinically effective antidepressants in these models
- ACTIVITY (time spent ambulating in an open field) ([12]; 40 mg/kg i.p.): 144 ± 5 s
- ACTIVITY (time spent ambulating in an open field) ([12]; 80 mg/kg i.p.): 167 ± 16 s
- ACTIVITY (time spent ambulating in an open field) ([12]; 100 mg/kg i.p.): 153 ± 5 s
- ACTIVITY (time spent ambulating in an open field) ([12]; 200 mg/kg i.p.): 134 ± 10 s
- activity at the NMDA receptor complex (NMDA receptor complex): competitive antagonist

Structure (SMILES): NC1CCN(O)C1=O (stereo not drawn) [HA-966, 3-amino-1-hydroxypyrrolidone]
- effect on immobility in the forced swim test [1, 17]: did not reduce immobility in the forced swim test
- lethality combined with forced swim [4]: lethal when combined with forced swim
- behavioral effects prior to forced swim [4]: marked behavioral effects, including ataxia

Structure (SMILES): O=C(O)c1cc2ccccc2[nH]1 [I2CA, indole2-carboxylic acid]
- effect on immobility in the forced swim test [1, 17]: did not reduce immobility in the forced swim test
- lethality combined with forced swim [4]: lethal when combined with forced swim
- behavioral effects prior to forced swim [4]: marked behavioral effects, including ataxia

Structure (SMILES): NC1(C(=O)O)CCCC1 [cycloleucine]
- effect on immobility in the forced swim test [1, 17]: did not reduce immobility in the forced swim test

Structure (SMILES): NCC(=O)O [glycine]
- intrinsic activity in the forced swim test ([1]; mouse, in vivo): devoid of intrinsic activity
- concentrations of other amino acids (glutamate, serine, taurine, GABA, alanine) in the hippocampus [13]: unchanged
- intrinsic activity in the open field ([12]; mouse, in vivo): devoid of intrinsic activity
